Reference: patent US20210063414A1, “METHODS FOR PREVENTING AND/OR TREATING BONE LOSS CONDITIONS BY MODULATING IRISIN” (Dana-Farber Cancer Institute, Inc., priority 2018, published 2021)
Entries after “also recorded” stand apart in the source; their conditions may differ. Where a name gives a salt, the structure may show the parent alone.

Legend:
MLO-Y4 cells = experiment: Integrin-like signaling (pFAK, pZyxin, pAKT, pCREB) in MLO-Y4 cells, immunoblot; type: cell-based; details: for effect of integrin inhibitor on irisin-induced signaling (phosphorylation of FAK, Zyxin, CREB): MLO-Y4, inhibitor pre-treatment 10 minutes before irisin
Experimental: Integrin heterodimer binds to its ligand. The interaction results in phosphorylation of FAK and Zyxin, followed by phosphorylation of AKT (at T308) and CREB. PM is plasma membrane. FIG. 2C and FIG. 2D show the immunoblots. MLO-Y4 cells were seeded and incubated until 60% cell density. The cells were incubated with serum free medium (FreeStyle™ 293 medium) for 4 hours and were treated for indicated time with 10 nM norepinephrine or irisin (FIG. 2C) or indicated concentrations of irisin for 10 minutes (FIG. 2D). Cells were lysed to detect the indicated protein level using immunoblot analysis.
(§1) Certain materials and methods were used to generate the results described herein. For example, the data shown in FIG. 1A resulted from MLO-Y4 (an osteocyte-like cell line) cells treated with the indicated concentration of irisin and hydrogen peroxide for 4 hours. Cells were stained with Hoechst 33342 (ThermoFisher Scientific, catalog number H3570) and Eth-D1 (ThermoFisher Scientific, catalog number E1169) and analyzed to determine the percentage of cell death using ImageJ. The data shown in FIG. 2D resulted from MLO-Y4 incubated in serum free medium (FreeStyle™ 293 expression medium, ThermoFisher Scientific, catalog number 12338018) for 4 hours followed by treatment of indicated concentrations of irisin for 10 minutes. Cells were lysed to detect the indicated protein level using immunoblot analysis (Cell Signaling Technology, catalog numbers 3283S, 3285S, 8467S, 3553S, 9198S, and 9104S; Abcam, catalog number ab49900-100ul). The data shown in FIG. 3 resulted from 3T3-F442A cells incubated in serum free medium for 4 hours followed by treatment of indicated concentrations of irisin for 10 minutes. Cells were lysed by RIPA buffer to detect the indicated protein level using immunoblot analysis. The data shown in FIG. 4 were generated from 100 nM flag-tagged irisin (Enzo life sciences, catalog number ADI-908-307-3010) incubated with 5 nM of the indicated 6 his-tag integrins (R & D Systems Inc., catalog numbers 7064-AB-025, 5668-A4-050, 5438-A9-050, 6357-AB-050, and 6579-AV-025) in the presence of RGDS peptide (R & D Systems Inc., catalog number 3498/10) or its control peptide (Enzo Life Sciences, catalog Number BML-P701-0005) followed by immunoprecipitation using 6 his-tag beads (ThermoFisher Scientific, catalog number R901-01). Co-precipitated irisin was analyzed by immunoblot analysis against flag tag (Sigma Aldrich, catalog number A8592). The data shown in FIGS. 5A and 5B were generated from MLO-Y4 cells treated and analyzed as in the experiments used to generate the data shown in FIG. 2D, except that pre-treatment of 100 nM RGDS (FIG. 5A) or echistatin (R & D Systems Inc., catalog number 3202/100U) (FIG. 5B) for 10 minutes was performed before irisin treatment. The data shown in FIGS. 6A and 6B were generated from MLO-Y4 cells incubated in serum free medium for 3 hours followed by treatment of indicated time of 10 nM irisin for 16 hours. RNAs were extracted from the cells and the sclerostin mRNA level was analyzed by qPCR (FIG. 6A) or treated and analyzed as in (FIG. 6A), except that pre-treatment of 10 μM RGDS, RGDyK (Selleck, catalog number S7844), or echistatin was performed for 10 minutes before irisin treatment. The data shown in FIGS. 7A and 7B were generated from 8 week-old mice injected with the indicated dose of irisin for 6 days. Tibias were collected and treated with collagenase to obtain mRNA from the osteocyte-enriched bones. Sclerostin mRNA level was analyzed by qPCR (FIG. 7A). Serum was collected to analyze the sclerostin protein level using ELISA kit (R&D Systems Inc., catalog number MSST00) (FIG. 7B). The data shown in FIG. 8 were generated from 8 week-old mice injected with the indicated dose of irisin for 6 days. Epididymal fats were collected, RNAs were extracted from the tissues, and mRNA levels of the indicated genes were analyzed by qPCR. […]

sclerostin = experiment: Irisin injection in mice: sclerostin mRNA in osteocyte-enriched bones and plasma sclerostin protein (ELISA); type: in vivo; details: co-injection of 1 mg/kg inhibitor with irisin
Experimental: 8 weeks old mice were injected daily with indicated dose of irisin for 6 days. […] were collected and treated with collagenase to yield osteocyte-enriched bones. Sclerostin mRNA level from osteocyte-enriched tibia was analyzed by qPCR (FIG. 7A). Cyclophilin was used as a house-keeping gene. Plasma was collected to analyze the circulating sclerostin protein level by ELISA assay (FIG. 7B). Data are represented as mean±SEM. For FIG. 7A and FIG. 7B, n=5 animals/group. * indicates p<0.05, and *** indicates p<0.001.
Certain materials and methods were used to generate the results described herein. For example, the data shown in FIG. 1A resulted from MLO-Y4 (an osteocyte-like cell line) cells treated with the indicated concentration of irisin and hydrogen peroxide for 4 hours. Cells were stained with Hoechst 33342 (ThermoFisher Scientific, catalog number H3570) and Eth-D1 (ThermoFisher Scientific, catalog number E1169) and analyzed to determine the percentage of cell death using ImageJ. […] Co-precipitated irisin was analyzed by immunoblot analysis against flag tag (Sigma Aldrich, catalog number A8592). The data shown in FIGS. 5A and 5B were generated from MLO-Y4 cells treated and analyzed as in the experiments used to generate the data shown in FIG. 2D, except that pre-treatment of 100 nM RGDS (FIG. 5A) or echistatin (R & D Systems Inc., catalog number 3202/100U) (FIG. 5B) for 10 minutes was performed before irisin treatment. […] RNAs were extracted from the cells and the sclerostin mRNA level was analyzed by qPCR (FIG. 6A) or treated and analyzed as in (FIG. 6A), except that pre-treatment of 10 μM RGDS, RGDyK (Selleck, catalog number S7844), or echistatin was performed for 10 minutes before irisin treatment. […] Sclerostin mRNA level was analyzed by qPCR (FIG. 7A). […] Epididymal fats were collected, RNAs were extracted from the tissues, and mRNA levels of the indicated genes were analyzed by qPCR. […]

[1] = test system: sclerostin mRNA in MLO-Y4 cells; experiment: Sclerostin mRNA in MLO-Y4 cells, qRT-PCR; type: cell-based, mouse; details: MLO-Y4, inhibitor pre-treatment 10 minutes, irisin 16 hours
Experimental: Cells were stained with Hoechst 33342 and Eth-D1, and analyzed to determine the percentage of cell death. *: p<0.05, ***: p<0.001 vs 0.3 mM H2O2 treated condition. […] MLO-Y4 cells were seeded and incubated until 60% cell density. The cells were incubated with Freestyle293 medium for 4 hours and were treated with indicated concentrations of irisin for 16 hours. Sclerostin mRNA level was analyzed by qRT-PCR. Cyclophilin was used as a control house-keeping gene.
MLO-Y4 cells were incubated in serum free medium for 3 hours followed by treatment of indicated concentrations of irisin for indicated time (FIG. 6A), or followed by treatment of 0 or 10 nM irisin in the presence of indicated integrin inhibitors or their control peptide for 16 hours (FIG. 6B). Sclerostin mRNA level was analyzed by qPCR.
as §1, with “The data shown in FIGS. 7A and 7B were generated from 8 week-old mice injected with the indicated dose of irisin for 6 days. Tibias were collected and treated with collagenase to obtain mRNA from the osteocyte-enriched bones.” left out, “7A).” for “7A). Serum was collected to analyze the sclerostin protein level using ELISA kit (R&D Systems Inc., catalog number MSST00) (FIG. 7B). The data shown in FIG. 8 were generated from 8 week-old mice injected with the indicated dose of irisin for 6 days. Epididymal fats were collected, RNAs were extracted from the tissues, and mRNA levels of the indicated genes were analyzed by qPCR.”

| Compound | effect of integrin inhibitor on irisin-induced signaling (phosphorylation of FAK, Zyxin, CREB) (MLO-Y4 cells) | effect on irisin-induced gene expression of sclerostin in osteocyte-enriched bones (sclerostin) | phosphorylation of CREB (positive control) (MLO-Y4 cells; MLO-Y4, 10 nM) | effect of integrin inhibitor on irisin-induced signaling (phosphorylation of FAK, Zyxin, CREB) (MLO-Y4 cells; listed as Echistatin) | effect of integrin inhibitor on irisin-induced sclerostin mRNA [1] |
| --- | --- | --- | --- | --- | --- |
| CNc1cccc(CCOc2ccc3c(c2)CN(CC(F)(F)F)C(=O)[C@H](CC(=O)O)C3)n1 [SB273005, reference compound] | block irisin-induced signaling | significantly prevented |  |  |  |
| NC[C@H](O)c1ccc(O)c(O)c1 [norepinephrine, L-(−)-Norephinephrine (+)-bitartrate salt monohyrdate] |  |  | also did this |  |  |
| echistatin: natural integrin inhibitor isolated from viper venom, affects primarily integrin αV complexes (QCESGPCCRNCKFLKEGTICKRARGDDMDDYCNGKTCDCPRNPHKGPAT) | most irisin signaling in osteocytes was inhibited |  |  | effectively prevented irisin signaling | sensitive; also recorded: prevented sclerostin induction |
